Laboratory results from patent publication US6472348B1, “Pyridone derivatives and herbicides” (Kumiai Chemical Industry Co., Ltd., priority 1996, dated 2002).

Tests used:
Diaitaria ciliaris (Di) = assay: Test Example 3: herbicidal effects by upland field foliage treatment; format: in vivo; design: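 grade of growth control; 5 = at least 90%; 4 = 70 to 90%; 3 = 50 to 70%; 2 = 30 to 50%; 1 = 10 to 30%; 0 = under 10%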
Procedure, shortened: (§1)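 Pot culture: sand, 120 cm^2 surface; seeds sown, soil-covered, greenhouse 2 weeks. Foliage treatment applied at that stage. Herbicidal effect rated by standard scale, day 14 post-treatment.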

barnyardgrass (Ec) [1] = assay: as above; format: in vivo; design: scale not given here
Procedure, shortened: as §1

[2] = tested on: common lambsquarters (Ch); assay: as above; format: in vivo; design: scale not given here
Procedure, shortened: as §1

pale smartweed (Po) [3] = assay: as above; format: in vivo; design: scale not given here
Procedure, shortened: as §1

rice flatsedge (Ci) [4] = assay: as above; format: in vivo; design: scale not given here
Procedure, shortened: as §1

slender amaranth (Am) [5] = assay: as above; format: in vivo; design: scale not given here
Procedure, shortened: as §1

wheat (Tr) = assay: Test Example 9: crop plant selectivity by upland field foliage treatment (wheat), phytotoxicity; conditions: dose 1.6 g ai/10a, 14th day after treatment;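 also: grade of crop injury; 5 = at least 90%; 4 = 70 to 90%; 3 = 50 to 70%; 2 = 30 to 50%; 1 = 10 to 30%; 0 = under 10%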
Procedure, shortened: (§2)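 Wheat and weeds sown in sand-filled pots, grown 2 weeks in a greenhouse, then foliage-treated. Herbicidal effect and crop phytotoxicity were scored 14 days after treatment against a rating scale.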

China jute (Ab) [6] = assay: Test Example 9: crop plant selectivity by upland field foliage treatment (wheat), herbicidal effects; format: in vivo; design: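 grade of growth control; 5 = at least 90%; 4 = 70 to 90%; 3 = 50 to 70%; 2 = 30 to 50%; 1 = 10 to 30%; 0 = under 10%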; conditions: dose 1.6 g ai/10a, 14th day after treatment
Procedure, shortened: as §2

[7] = tested on: common lambsquarters (Ch); assay: as above; format: in vivo; design: scale not given here; conditions: dose 1.6 g ai/10a, 14th day after treatment
Procedure, shortened: as §2

pale smartweed (Po) [8] = assay: as above; format: in vivo; design: scale not given here; conditions: dose 1.6 g ai/10a, 14th day after treatment
Procedure, shortened: as §2

slender amaranth (Am) [9] = assay: as above; format: in vivo; design: scale not given here; conditions: dose 1.6 g ai/10a, 14th day after treatment
Procedure, shortened: as §2

corn (Ze) = assay: Test Example 11: crop plant selectivity by upland field foliage treatment (corn), phytotoxicity; conditions: dose 1.6 g ai/10a
Description: (§3) (Test on Crop Plant Selectivity by Upland Field Foliage Treatment)
(§4) In a plastic pot (surface area: 600 cm^2) filled with sand, corn (Ze), pale smartweed (Po), slender amaranth (Am), common lambsquarters (Ch) and China jute (Ab) were sown and cultured in a green house for 2 weeks. […] The plants were then cultured in a green house, and the evaluation of the herbicidal effects and phytotoxicity was conducted on the 14th day after the treatment in accordance with the standards as identified in Table 47.

China jute (Ab) [10] = assay: Test Example 11: crop plant selectivity by upland field foliage treatment (corn), herbicidal effects; format: in vivo; design: scale not given here; conditions: dose 1.6 g ai/10a
Description: as §3, §4

[11] = tested on: common lambsquarters (Ch); assay: as above; format: in vivo; design: scale not given here; conditions: dose 1.6 g ai/10a
Description: as §3, §4

pale smartweed (Po) [12] = assay: as above; format: in vivo; design: scale not given here; conditions: dose 1.6 g ai/10a
Description: as §3, §4

slender amaranth (Am) [13] = assay: as above; format: in vivo; design: scale not given here; conditions: dose 1.6 g ai/10a
Description: as §3, §4

barnyardgrass (Ec) [14] = assay: Test Example 1: herbicidal effects by paddy field soil treatment; format: in vivo; conditions: 100 g of the active ingredient per 10 ares, 21st day after the application, index 0-5 of Table 47;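 also: grade of growth control; 5 = at least 90%; 4 = 70 to 90%; 3 = 50 to 70%; 2 = 30 to 50%; 1 = 10 to 30%; 0 = under 10%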
Procedure, shortened: (§5)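 Flooded paddy-soil pots (3 cm water) sown after puddling/leveling; treatment 100 g a.i./10 ares; greenhouse culture; herbicidal effect rated visually on a scoring scale at 21 d post-application.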

bulrush (Sc) = assay: as above; format: in vivo; conditions: 100 g of the active ingredient per 10 ares, 21st day after the application, index 0-5 of Table 47;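 also: grade of growth control; 5 = at least 90%; 4 = 70 to 90%; 3 = 50 to 70%; 2 = 30 to 50%; 1 = 10 to 30%; 0 = under 10%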
Procedure, shortened: as §5

monochoria (Mo) = assay: as above; format: in vivo; conditions: 100 g of the active ingredient per 10 ares, 21st day after the application, index 0-5 of Table 47;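 also: grade of growth control; 5 = at least 90%; 4 = 70 to 90%; 3 = 50 to 70%; 2 = 30 to 50%; 1 = 10 to 30%; 0 = under 10%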
Procedure, shortened: as §5

Digitaria ciliaris (Di) = assay: Test Example 2: herbicidal effects by upland field soil treatment; format: in vivo; conditions: 100 g of the active ingredient per 10 ares
Excerpt: (§6) (Test on Herbicidal Effects by Upland Field Soil Treatment)

barnyardgrass (Ec) [15] = assay: as above; format: in vivo; conditions: 100 g of the active ingredient per 10 ares
Excerpt: as §6

[16] = tested on: common lambsquarters (Ch); assay: as above; format: in vivo; conditions: 100 g of the active ingredient per 10 ares
Excerpt: as §6

pale smartweed (Po) [17] = assay: as above; format: in vivo; conditions: 100 g of the active ingredient per 10 ares
Excerpt: as §6

rice flatsedge (Ci) [18] = assay: as above; format: in vivo; conditions: 100 g of the active ingredient per 10 ares
Excerpt: as §6

slender amaranth (Am) [19] = assay: as above; format: in vivo; conditions: 100 g of the active ingredient per 10 ares
Excerpt: as §6

[20] = 100 g of the active ingredient per 10 ares, evaluated on the 14th day after treatment
[21] = upland field foliage treatment, 14th day after treatment
[22] = upland field foliage treatment (corn test), 14th day after treatment
[23] = 21st day after the application, index 0-5 of Table 47
[24] = evaluated on the 21st day after application
[25] = 100 g active ingredient per 10 ares, evaluated 14th day after treatment
[26] = corn, foliage treatment, evaluated on 14th day after treatment, index per Table 47
[27] = China jute, foliage treatment, evaluated on 14th day after treatment, index per Table 47
[28] = common lambsquarters, foliage treatment, evaluated on 14th day after treatment, index per Table 47
[29] = pale smartweed, foliage treatment, evaluated on 14th day after treatment, index per Table 47
[30] = slender amaranth, foliage treatment, evaluated on 14th day after treatment, index per Table 47

Row | SMILES | Herbicidal effects Di (Diaitaria ciliaris (Di); [20]) | Herbicidal effects Ec (barnyardgrass (Ec) [1]; [20]) | Herbicidal effects Ch [2, 20] | Herbicidal effects Po (pale smartweed (Po) [3]; [20]) | Herbicidal effects Ci (rice flatsedge (Ci) [4]; [20]) | Herbicidal effects Am (slender amaranth (Am) [5]; [20]) | Phytotoxicity Tr (wheat (Tr)) | Herbicidal effects Ab (China jute (Ab) [6]) | Herbicidal effects Ch [7] | Herbicidal effects Po (pale smartweed (Po) [8]) | Herbicidal effects Am (slender amaranth (Am) [9]) | Phytotoxicity Ze (corn (Ze); [21]) | Herbicidal effects Ab (China jute (Ab) [10]; [22]) | Herbicidal effects Ch [11, 22] | Herbicidal effects Po (pale smartweed (Po) [12]; [22]) | Herbicidal effects Am (slender amaranth (Am) [13]; [22]) | Herbicidal effects Ec (barnyardgrass (Ec) [14]) | Herbicidal effects Sc (bulrush (Sc)) | Herbicidal effects Mo (monochoria (Mo)) | Herbicidal effects Di (Digitaria ciliaris (Di); [23]) | other results
1 | CCOC(=O)C(CC)Sc1cc(-c2ccc(C(F)(F)F)n(C)c2=O)c(Cl)cc1Cl (racemic) [1-125] | 5 | 5 | 5 | 5 | 5 | 5 | 2 | 5 | 5 | 5 | 5 | 2 | 5 | 5 | 5 | 5 |  |  |  |  | 
2 | C#CC(C)Oc1cc(-c2ccc(C(F)(F)F)n(C)c2=O)c(Cl)cc1Cl (centres unmarked) [1-31] |  |  |  |  |  |  | 2 | 5 | 5 | 5 | 5 | 2 | 5 | 5 | 5 | 5 |  |  |  |  | 
3 | COCOc1cc(-c2ccc(C(F)(F)F)n(C)c2=O)c(Cl)cc1Cl [1-38] | 5 | 5 | 5 | 5 | 5 | 5 | 2 | 5 | 5 | 5 | 5 | 2 | 5 | 5 | 5 | 5 | 5 | 5 | 5 | 5 | Herbicidal effects Ec (barnyardgrass (Ec) [15]; [23]): 5; Herbicidal effects Ch [16, 23]: 5; Herbicidal effects Po (pale smartweed (Po) [17]; [23]): 5; Herbicidal effects Ci (rice flatsedge (Ci) [18]; [23]): 5; Herbicidal effects Am (slender amaranth (Am) [19]; [23]): 5
4 | C#CCNc1cc(-c2ccc(C(F)(F)F)n(C)c2=O)c(F)cc1Cl [1-62] | 5 | 5 | 5 | 5 | 5 | 5 | 2 | 5 | 5 | 5 | 5 | 2 | 5 | 5 | 5 | 5 | 5 | 5 | 5 | 5 | Herbicidal effects Ec (barnyardgrass (Ec) [15]; [23]): 5; Herbicidal effects Ch [16, 23]: 5; Herbicidal effects Po (pale smartweed (Po) [17]; [23]): 5; Herbicidal effects Ci (rice flatsedge (Ci) [18]; [23]): 5; Herbicidal effects Am (slender amaranth (Am) [19]; [23]): 5
5 | C#CCOc1cc(-c2ccc(C(F)(F)F)n(C)c2=O)ccc1Cl [1-106] | 5 | 5 | 5 | 5 | 5 | 5 | 2 | 5 | 5 | 5 | 5 | 2 | 5 | 5 | 5 | 5 | 5 | 5 | 5 | 5 | Herbicidal effects Ec (barnyardgrass (Ec) [15]; [23]): 5; Herbicidal effects Ch [16, 23]: 5; Herbicidal effects Po (pale smartweed (Po) [17]; [23]): 5; Herbicidal effects Ci (rice flatsedge (Ci) [18]; [23]): 5; Herbicidal effects Am (slender amaranth (Am) [19]; [23]): 5
6 | Cn1c(C(F)(F)F)ccc(-c2cc(C(=O)OCCBr)c(Cl)cc2F)c1=O [1-134] | 5 | 5 | 5 | 5 | 5 | 5 | 2 | 5 | 5 | 5 | 5 | 2 | 5 | 5 | 5 | 5 | 5 | 5 | 5 | 5 | Herbicidal effects Ec (barnyardgrass (Ec) [15]; [23]): 5; Herbicidal effects Ch [16, 23]: 5; Herbicidal effects Po (pale smartweed (Po) [17]; [23]): 5; Herbicidal effects Ci (rice flatsedge (Ci) [18]; [23]): 5; Herbicidal effects Am (slender amaranth (Am) [19]; [23]): 5
7 | Cn1c(C(F)(F)F)ccc(-c2cc(OC3CCOC3)c(Cl)cc2F)c1=O (centres unmarked) [1-162] | 5 | 5 | 5 | 5 | 5 | 5 | 2 | 5 | 5 | 5 | 5 | 2 | 5 | 5 | 5 | 5 | 5 | 5 | 5 | 5 | Herbicidal effects Ec (barnyardgrass (Ec) [15]; [23]): 5; Herbicidal effects Ch [16, 23]: 5; Herbicidal effects Po (pale smartweed (Po) [17]; [23]): 5; Herbicidal effects Ci (rice flatsedge (Ci) [18]; [23]): 5; Herbicidal effects Am (slender amaranth (Am) [19]; [23]): 5
8 | Cn1c(C(F)(F)F)ccc(-c2cc3c(cc2F)OCC(=O)N3CC#N)c1=O [Compound 2-17] |  |  |  |  |  |  |  |  |  |  |  | 2 | 5 | 5 | 5 | 5 | 5 | 5 | 5 |  | Herbicidal effects Di (Digitaria ciliaris (Di); [24]): 5; Herbicidal effects Ec (barnyardgrass (Ec) [15]; [24]): 5; Herbicidal effects Ch [16, 24]: 5; Herbicidal effects Po (pale smartweed (Po) [17]; [24]): 5; Herbicidal effects Ci (rice flatsedge (Ci) [18]; [24]): 5; Herbicidal effects Am (slender amaranth (Am) [19]; [24]): 5; Herbicidal effects Di (Diaitaria ciliaris (Di); [25]): 5; Herbicidal effects Ec (barnyardgrass (Ec) [1]; [25]): 5; Herbicidal effects Ch [2, 25]: 5; Herbicidal effects Po (pale smartweed (Po) [3]; [25]): 5; Herbicidal effects Ci (rice flatsedge (Ci) [4]; [25]): 5; Herbicidal effects Am (slender amaranth (Am) [5]; [25]): 5
9 | CCOC(=O)CN1C(=O)COc2cc(F)c(-c3ccc(C(F)(F)F)n(C)c3=O)cc21 [Compound 2-18] |  |  |  |  |  |  | 2 | 5 | 5 | 5 | 5 | 2 | 5 | 5 | 5 | 5 | 5 | 5 | 5 |  | 
10 | CC(C)OCc1cc2c(-c3ccc(C(F)(F)F)n(C)c3=O)c(F)cc(Cl)c2o1 [Compound 4-33] |  |  |  |  |  |  | 2 | 5 | 5 | 5 | 5 |  |  |  |  |  | 5 | 5 | 5 |  | Herbicidal effects Di (Diaitaria ciliaris (Di); [25]): 5; Herbicidal effects Ec (barnyardgrass (Ec) [1]; [25]): 5; Herbicidal effects Ch [2, 25]: 5; Herbicidal effects Po (pale smartweed (Po) [3]; [25]): 5; Herbicidal effects Ci (rice flatsedge (Ci) [4]; [25]): 5; Herbicidal effects Am (slender amaranth (Am) [5]; [25]): 5; Phytotoxicity Ze (corn (Ze); [26]): 2; Herbicidal effects Ab (China jute (Ab) [10]; [27]): 5; Herbicidal effects Ch [11, 28]: 5; Herbicidal effects Po (pale smartweed (Po) [12]; [29]): 5; Herbicidal effects Am (slender amaranth (Am) [13]; [30]): 5
11 | CCC(Br)c1cc2c(-c3ccc(C(F)(F)F)n(C)c3=O)c(F)cc(Cl)c2o1 (centres unmarked) [Compound 4-38] |  |  |  |  |  |  | 2 | 5 | 5 | 5 | 5 |  |  |  |  |  |  |  |  |  | Phytotoxicity Ze (corn (Ze); [26]): 2; Herbicidal effects Ab (China jute (Ab) [10]; [27]): 5; Herbicidal effects Ch [11, 28]: 5; Herbicidal effects Po (pale smartweed (Po) [12]; [29]): 5; Herbicidal effects Am (slender amaranth (Am) [13]; [30]): 5
12 | CC(C)OC(=O)c1cc(-c2ccc(C(F)(F)F)n(C)c2=O)c(F)cc1Cl [Compound No. 1-66, isopropyl 5-(1-methyl-6-trifluoromethyl-2(1H)-pyridon-3-yl)-2-chloro-4-fluorobenzoate] | 5 | 5 | 5 | 5 | 5 | 5 |  |  |  |  |  | 2 | 5 | 5 | 5 | 5 | 5 | 5 | 5 | 5 | Herbicidal effects Ec (barnyardgrass (Ec) [15]; [23]): 5; Herbicidal effects Ch [16, 23]: 5; Herbicidal effects Po (pale smartweed (Po) [17]; [23]): 5; Herbicidal effects Ci (rice flatsedge (Ci) [18]; [23]): 5; Herbicidal effects Am (slender amaranth (Am) [19]; [23]): 5
